Measurements from patent publication US20240325406A1, “ANTIBACTERIAL COMPOSITIONS” (Wockhardt Limited, priority 2016, published 2024).

How the values were obtained:
Test in all cases: Quantitative drug diffusion (disc) assay per CLSI, zone of inhibition
Assay type in all cases: cell-based
Set-up in all cases: key to CLSI susceptibility interpretation: (R): Resistant;; (I): Intermediate;; (S): Sensitive (Interpretation as per CLSI recommendations, 2010)
E. coli S-112 = tested on: E. coli S-112
Text: (§1) Antibacterial activity of cefepime combination with tazobactam against various bacterial strains, including those bacteria that are known to product one or more beta-lactamase, was investigated in quantitative drug diffusion assay performed as per CLSI recommendations (Clinical and Laboratory Standards Institute (CLSI), performance Standards for Antimicrobial Susceptibility Testing, 20th Informational Supplement, M 100-S20, Volume 30, No. 1, 2010).
(§2) In a typical study, overnight grown bacterial cultures after appropriate dilution were seed inoculated in the molten, cooled agar media and plates poured. Antibacterial agents containing 6 mm diameter discs were placed on the top of the agar surface. Zone of inhibition based observation was performed after 16 to 18 hours of incubation at 35±2° C. in ambient air. These assays are routinely used in determining possibility of treating a particular infection using given antibacterial agent or a composition. In general, zone inhibition values in the sensitive(S) range indicate that the strain is susceptible to that antibacterial agent or composition. It is generally assumed that the antibacterial agent or the combination under consideration would not be effective in treating the infection, if the zone inhibition values are in the resistant (R) range.

E. coli 7MP = tested on: E. coli 7MP
Text: as §1, §2

E. coli M50 = tested on: E. coli M50
Text: as §1, §2

E. coli M-138 = tested on: E. coli M-138
Text: as §1, §2

E. coli B-123 = tested on: E. coli B-123
Text: as §1, §2

E. coli B-89 = tested on: E. coli B-89
Text: as §1, §2

[1] = 6 mm discs, 16 to 18 hours at 35±2° C., tazobactam 10 mcg in the combination
[2] = interpretation of zone of inhibition

`CO/N=C(\C(=O)N[C@@H]1C(=O)N2C(C(=O)[O-])=C(C[N+]3(C)CCCC3)CS[C@H]12)c1csc(N)n1` [Cefepime, cefepime] was tested, and the “Zone of Inhibition” value (E. coli S-112; [1]) was 17 mm, the CLSI susceptibility interpretation (E. coli S-112; [2]) was “I” and the “Zone of Inhibition” value (E. coli 7MP; [1]) was 16 mm. The CLSI susceptibility interpretation (E. coli 7MP; [2]) was “I”, the “Zone of Inhibition” value (E. coli M50; [1]) was 7.5 mm and the CLSI susceptibility interpretation (E. coli M50; [2]) was “R”. The “Zone of Inhibition” value (E. coli M-138; [1]) was “Nil”, the CLSI susceptibility interpretation (E. coli M-138; [2]) was “R” and the “Zone of Inhibition” value (E. coli B-123; [1]) was 8 mm. The CLSI susceptibility interpretation (E. coli B-123; [2]) was “R”, the “Zone of Inhibition” value (E. coli B-89; [1]) was 8 mm and the CLSI susceptibility interpretation (E. coli B-89; [2]) was “R”.
